Laboratory results reported in US10174057B2, “Metallacrown complexes and methods of making the same” (THE REGENTS OF THE UNIVERSITY OF MICHIGAN, priority 2013, dated 2019).

Experiments:
[1] = Quantum yields in the NIR, absolute method using an integration sphere; type: physicochemical; conditions: 298 K, excitation 370 nm
Protocol: (§1) Luminescence data were collected on samples that were placed into 2.4 mm i.d. quartz capillaries or quartz Suprasil cells. Emission and excitation spectra were measured on a Horiba-Jobin-Yvon Fluorolog 3 spectrofluorimeter equipped with either a visible photomultiplier tube (PMT) (220-800 nm, R928P; Hamamatsu), a NIR solid-state InGaAs detector cooled to 77 K (800-1600 nm, DSS-IGA020L; Jobin-Yvon), or NIR PMTs (950-1450 nm, H10330-45; 950-1650 nm, H10330-75; Hamamatsu). All spectra were corrected for instrumental functions.
Quantum yields in the NIR were determined with a Fluorolog 3 spectrofluorimeter according to an absolute method using an integration sphere (GMP SA). Each sample was measured several times under slightly different experimental conditions. Estimated experimental error for quantum yields determination is 10%.
(§2) Luminescence spectra were recorded for the Ln(III) metallacrown complexes (Ln(III)=Yb, Nd, Er) in the solid state and in solution (CH3OH/CD3OD) using excitation at 420 nm or 370 nm.

[2] = Luminescence lifetimes under excitation at 355 nm; type: physicochemical; conditions: for τobs: 298 K, excitation 355 nm; for q (inner sphere hydration number): calculated from kCH3OH and kCD3OD
Protocol: as §1
Luminescence lifetimes were determined under excitation at 355 nm provided by a Nd:YAG laser (YG 980; Quantel), while the signal was detected in the NIR by the aforementioned PMT (H10330-75). The output signal from the detectors was then fed to a 500 MHz bandpass digital oscilloscope (TDS 754C; Tektronix) and then transferred to a PC for treatment with Origin 8®. Luminescence lifetimes are averages of at least three independent measurements.
as §2

[3] = tested on: HeLa (Human Epithelial Ovarian Carcinoma) cells; assay: NIR epifluorescence microscopy on HeLa cells; type: cell-based
Protocol: The preparation of the Yb(III) Metallacrowns and the description of the NIR Epifluorescence Microscopy are applicable for both experiments.
Yb^3+[12-MC-4]2[24-MC-8] was prepared as described above, and was dissolved in DMSO at an appropriate concentration, and was used as such or was incubated with beads for incorporation therein.
NIR epifluorescence microscopy was performed with an Axio Observer Z1 fluorescence inverted microscope (Zeiss, Le Pecq, France) equipped with an EMCCD Evolve 512 photometric camera (Roper Scientific). The EMCCD Evolve 512 photometric camera was linked to a computer driving the acquisition software Axiovision (Zeiss). The inverted microscope was equipped with Zeiss objectives (immersion Plan Apochromat 63x (Numerical Aperture (NA)=1.4), Plan Neofluar 40x (NA=0.75), Plan Apochromat 20x (NA=0.8)). A Zeiss HXP-120 light source (metal halide) was used as the excitation system, and was combined with a UV cube filter unit as follows: 377 nm band pass 50 nm filter for excitation, and long pass 805 nm filter for Yb(III) emission in the NIR range. […]
NIR Epifluorescence Microscopy was used to observe the treated cells after 24 hours of incubation with Yb^3+[12-MC-4]2[24-MC-8] and the untreated cells. […] As illustrated in both FIGS. 8E and 8F, the emission in the NIR range for the untreated HeLa cells was not detected. […]

[4] = Emission spectra and ligand energy levels (singlet, triplet, CT); type: physicochemical; conditions: for energy of the triplet state: determined on the 0-0 transition
Protocol: FIG. 3 is a graph depicting the corrected and normalized emission spectra of quinHA (10 mg/mL) under excitation at 290 in methanol at 77 K and Gd(III) MC (10 mg/mL) under excitation at 290 nm or 340 nm in methanol at 298 K and 77 K;
as §1
At 77 K, strong green luminescence centered at 510 nm with a weak band in the 325-460 nm range. The latter band disappeared upon enforcing a delay of 100 μs, so it can be assigned to a short-lived fluorescence while the green emission is phosphorescence. The energy of the triplet state of quinHA, determined on the 0-0 transition, can therefore be estimated as 21 000 cm−1 (476 nm).
The energy gap between ground and excited states for Gd(III) is very high and, therefore, it is impossible for the Gd(III) ion in the corresponding metallacrown complex to be sensitized with 300-400 nm excitation. It is believed that this feature can be used to determine the energy levels of the metallacrown complexes in the absence of energy transfer to the Ln(III) ion. The Gd(III) metallacrown complex was exposed to UV excitation into the ligand-based charge transfer band at 340 nm at room temperature, resulting in a weak broad-band emission with a maximum at 580-590 nm (FIG. 3). Lowering the temperature to 77 K led to a slight sharpening of the band and a shift of the maximum to 545-555 nm (FIG. 3). […] The position of the triplet state determined from the spectrum of Gd(III) metallacrown complex was the same as for quinHA within experimental error, 20 920 cm^−1 (478 nm). The position of the lowest excited singlet and the ligand-based charge transfer (CT) states were determined from the intersection of the absorption and emission (fluorescence) spectra of quinHA and Gd^3+[12-MC-4]2[24-MC-8], respectively, and found to be located at 29 850 cm^−1 (335 nm) and 21 560 cm^−1 ([…]). A proposed schematic diagram of the quinHA ligand's energy levels (singlet, triplet and CT) with respect to the energy levels of Yb(III), Nd(III) and Er(III) lanthanide ions and possible energy migration paths are shown in FIG. 4.

[5] = Absorption spectra in methanol; type: physicochemical; conditions: 298 K
Text: FIG. 2 is a graph of the absorption spectra of Ln(III) MC complexes (2.04·10^−5 M, Ln(III)=Gd, Nd, Yb, Er) and quinaldichydroxamic acid (quinHA) (2.42·10^−4 M) in methanol at 298 K, where the absorption spectrum of quinHA was multiplied by 16 times;
Upon deprotonation and formation of the metallacrown framework, Ln(III)[12-MC-4]2[24-MC-8], a broad absorption appears in the near-visible region with an apparent maximum at 380 nm (ε≈5.5·10^4 M^−1 cm^−1) and cutoff at 470 nm. In FIG. 2, the results are shown for the Gd(III), Nd(III), Yb(III), and Er(III).

[6] = intersection of absorption and emission spectra
[7] = excitation 290 nm, 77 K, methanol

| Compound | QLn/%L (quantum yield) ([1]; CD3OD, 0.1 mg/mL) | QLn/%L (quantum yield) ([1]; CD3OD, 1 mg/mL) | QLn/%L (quantum yield) ([1]; CH3OH, 0.1 mg/mL) | QLn/%L (quantum yield) ([1]; CH3OH, 1 mg/mL) | QLn/%L (quantum yield) ([1]; Solid) | τobs ([2]; CD3OD, 0.1 mg/mL) | τobs ([2]; CD3OD, 1 mg/mL) | τobs ([2]; CH3OH, 0.1 mg/mL) | q (inner sphere hydration number) ([2]; CH3OH, 0.1 mg/mL) | τobs ([2]; CH3OH, 1 mg/mL) | q (inner sphere hydration number) ([2]; CH3OH, 1 mg/mL) | τobs ([2]; Solid) | energy of the triplet state [4] | further results |
| --- | --- | --- | --- | --- | --- | --- | --- | --- | --- | --- | --- | --- | --- | --- |
| YbZn16(quinHA)16(OTf)3 [Yb(III)MC] | 2.91(7) % | 2.88(2) % | 0.27(1) % | 0.25(1) % | 2.44(4) % | 144.6(5) μs | 150.7(2) μs | 15.14(4) μs | 0 | 14.88(1) μs | 0 | 47.8(4) μs | – | emission in the NIR range of treated cells ([3]; Experiment 1: 1 μM, 24 hours, λex=377 nm, long pass 805 nm, 500 ms exposure): unambiguously detected; Yb(III) emission in the NIR range of treated cells ([3]; both experiments (1 μM 24 h; 5 μM 11-12 h), short exposure times): unambiguously detected |
| GdZn16(quinHA)16(OTf)3 [Gd(III) metallacrown complex] | – | – | – | – | – | – | – | – | – | – | – | – | 20 920 cm^−1 | emission maximum ([4]; 77 K, time delay of 100 μs): 510 nm; emission maximum ([4]; excitation 340 nm, 77 K): 545-555 nm; emission maximum ([4]; excitation 340 nm, room temperature, weak broad-band emission): 580-590 nm; position of the ligand-based charge transfer (CT) state [4, 6]: 21 560 cm^−1 |
| O=C(NO)c1ccc2ccccc2n1 [quinHA, quinaldichydroxamic acid] | – | – | – | – | – | – | – | – | – | – | – | – | 21 000 cm^−1 | green luminescence (phosphorescence) centre [4, 7]: 510 nm; weak band (short-lived fluorescence) [4, 7]: 325-460 nm; emission upon UV excitation ([4]; excitation 290 nm, room temperature, methanol): did not display any detectable emission; position of the lowest excited singlet state [4, 6]: 29 850 cm^−1; melting point: 146 to 148 °C; long wavelength absorption cutoff [5]: 340 nm |
| NdZn16(quinHA)16(OTf)3 [Nd(III)MC] | 1.38(1) % | 1.35(1) % | 0.40(1) % | 0.38(1) % | 1.13(4) % | 4.00(1) μs | 4.11(3) μs | 1.16(1) μs | 0 | 1.16(1) μs | 0 | 1.79(2) μs | – | – |
| ErZn16(quinHA)16(OTf)3 [Er(III)MC] | – | 3.60(6) · 10^−2% | – | 9.9(3) · 10^−4% | 4.2(1) · 10^−2% | – | 11.40(3) μs | – | – | 1.25(1) μs | – | 5.73(2) μs | – | – |
